Assay results published in ChEMBL document CHEMBL5321290, “Discovery of the Diphenyl 6-Oxo-1,6-dihydropyridazine-3-carboxylate/carboxamide Analogue J27 for the Treatment of Acute Lung Injury and Sepsis by Targeting JNK2 and Inhibiting the JNK2-NF-κB/MAPK Pathway” (J Med Chem, 2023).
Calls of active or inactive are those of the source. The rule behind the calls is not given here.

Experiments:
[1] = Cmax in Sprague-Dawley rat at 10 mg/kg, po measured upto 24 hrs by UPLC-MS/MS analysis; type: ADME, organism-based; design: time < 24 hrs, dose 10 mg/kg, route po; conditions: in vivo
[2] = molecular target: Transcription factor p65 (Mus musculus) (UniProt Q04207); assay: Inhibition of P65 entry into nucleus in mouse J774A.1 cells assessed as density quantification pretreated at 10 uM for 2 hrs followed by induced with LPS for 30 mins by immunofluorescence analysis; type: cell-based; conditions: J774.1, time 2.5 hrs
Chain of Transcription factor p65 (Mus musculus) (Q04207 whole entry): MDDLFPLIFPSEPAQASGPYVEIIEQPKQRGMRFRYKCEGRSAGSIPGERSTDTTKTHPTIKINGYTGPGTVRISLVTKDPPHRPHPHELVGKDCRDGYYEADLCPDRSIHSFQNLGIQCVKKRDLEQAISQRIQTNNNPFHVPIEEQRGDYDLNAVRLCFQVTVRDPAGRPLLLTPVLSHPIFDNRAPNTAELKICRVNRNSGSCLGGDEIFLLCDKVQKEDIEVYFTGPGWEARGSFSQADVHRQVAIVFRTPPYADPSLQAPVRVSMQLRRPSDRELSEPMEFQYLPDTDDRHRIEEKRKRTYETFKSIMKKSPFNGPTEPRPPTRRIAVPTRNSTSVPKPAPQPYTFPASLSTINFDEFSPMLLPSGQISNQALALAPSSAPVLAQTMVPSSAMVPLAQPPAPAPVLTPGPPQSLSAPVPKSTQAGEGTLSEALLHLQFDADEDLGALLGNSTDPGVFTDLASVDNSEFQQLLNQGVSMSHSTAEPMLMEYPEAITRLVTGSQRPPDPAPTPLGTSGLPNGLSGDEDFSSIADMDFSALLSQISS

Mus musculus [3] = assay: Antiinflammatory activity against LPS-induced acute lung injury C57 mouse model assessed as reduction in LPS-induced p-p65 level in lung tissue at 40 mg/kg, po thrice at 12 hrs interval followed 30 mins treated with LPS by Western blot analysis; type: functional, organism-based; conditions: time 36.5 hrs
THP-1 = assay: Antiinflammatory activity against human THP-1 cells assessed as inhibition of LPS-stimulated TNFalpha release measured after 30 mins by ELISA; type: functional; conditions: 0.5 h
[4] = Cmax in Sprague-Dawley rat at 10 mg/kg, iv measured upto 24 hrs by UPLC-MS/MS analysis; type: ADME, organism-based; design: dose 10 mg/kg, time < 24 hrs, route iv; conditions: in vivo
Mus musculus [5] = assay: Antiinflammatory activity against LPS-induced septic shock mouse model assessed as improvement in LPS-induced weight loss at 20 mg/kg, po pretreated 1 hr before LPS administration measured upto 120 hrs; type: functional, organism-based; conditions: time <= 121.0 hrs
Mus musculus [6] = assay: Antiinflammatory activity against LPS-induced acute lung injury C57 mouse model assessed as decrease in LPS-induced neutrophile count in broncho alveolar lavage fluid at 20 mg/kg, po thrice at 12 hrs interval; type: functional, organism-based; conditions: Bronchoalveolar lavage
Mus musculus [7] = assay: Antiinflammatory activity against LPS-induced acute lung injury C57 mouse model assessed as decrease in LPS-induced IL-6level in blood at 20 mg/kg, po thrice at 12 hrs interval; type: functional, organism-based
[8] = molecular target: Mitogen-activated protein kinase 9 (Mus musculus) (UniProt Q9WTU6); assay: Binding affinity to JNK2 in protein lysate of LPS-stimulated mouse J774A.1 cells assessed as protein degradation in presence of pronase at 10 to 40 uM measured after overnight incubation by immunoblotting based drug affinity responsive target stability (DARTS) assay; type: subcellular; conditions: J774.1, dose 10-40 µM
Chain of Mitogen-activated protein kinase 9 (Mus musculus) (Q9WTU6 whole entry): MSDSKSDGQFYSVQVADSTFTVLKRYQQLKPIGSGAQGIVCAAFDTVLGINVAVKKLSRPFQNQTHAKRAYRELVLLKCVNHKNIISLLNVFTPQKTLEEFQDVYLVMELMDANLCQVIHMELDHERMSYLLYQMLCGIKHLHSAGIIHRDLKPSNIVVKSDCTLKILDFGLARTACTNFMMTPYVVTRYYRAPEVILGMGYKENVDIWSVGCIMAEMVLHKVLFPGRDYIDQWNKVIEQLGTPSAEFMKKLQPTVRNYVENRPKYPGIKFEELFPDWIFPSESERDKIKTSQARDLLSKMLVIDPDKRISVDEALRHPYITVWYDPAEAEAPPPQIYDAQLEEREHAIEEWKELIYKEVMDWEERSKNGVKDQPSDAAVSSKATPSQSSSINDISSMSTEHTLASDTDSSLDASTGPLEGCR

[9] = Cytotoxicity against mouse J774A.1 cells assessed as cell viability at 10 uM measured after 24 hrs incubation by MTT assay; type: toxicity, cell-based, J774.A1; conditions: read-out: Activity
[10] = Oral bioavailability n Sprague-Dawley rat at 10 mg/kg measured upto 24 hrs by UPLC-MS/MS analysis; type: ADME, organism-based; conditions: in vivo
[11] = molecular target: Transcription factor p65 (Mus musculus) (UniProt Q04207); assay: Inhibition of P65 phosphorylation in mouse J774A.1 cells pretreated at 10 uM for 2 hrs followed by induced with LPS for 30 mins by Western blot analysis; type: cell-based; conditions: J774.1, time 2.5 hrs
[12] = Half life in Sprague-Dawley rat at 10 mg/kg, po measured upto 24 hrs by UPLC-MS/MS analysis; type: ADME, organism-based; conditions: in vivo

With `COc1cc2nccc(Oc3ccc(NC(=O)c4nn(-c5ccc(C)cc5)c(=O)cc4C)cc3)c2cc1OC` the Cmax [1] was 1870 ng/mL, the inhibition [2] was “Active” and the Activity (Mus musculus [3]) was “Active”. The IC50 (THP-1) was 1760 nM, the Cmax [4] was 1460 ng/mL and the Activity (Mus musculus [5]) was “Active”. The Activity (Mus musculus [6]) was “inactive”, the Activity (Mus musculus [7]) was “Active” and the Activity [8] was “inactive”. The viability at 24 h, 10 µM [9] was > 80%, the F [10] was 30.74% and the inhibition [11] was “Active”. The half-life [12] was 1.16 h.
